*1 amine or outer side, *2 acyl side, *3 side chain or, on linkers, in order; H or OH if unused. Where a SMILES comes first, the peptide text is derived from it. Side-chain parts run from the residue outwards. [ ]: non-standard residue; d: D form. The star is where a group is joined. Trp(5-OH) = N[C@@H](Cc1c[nH]c2ccc(O)cc12)C(=O)O; γGlu = O=C(O)[C@H](CCC(=O)[*:2])N[*:1]; Pentadecanoyl = CCCCCCCCCCCCCCC(=O)*; Stearoyl = CCCCCCCCCCCCCCCCCC(=O)*; Palmitoyl = CCCCCCCCCCCCCCCC(=O)*; αMeF = C[C@](N)(Cc1ccccc1)C(=O)O; αMeK = C[C@](N)(CCCCN)C(=O)O; Lauroyl = CCCCCCCCCCCC(=O)*; Nle = CCCC[C@H](N)C(=O)O; AEEA = NCCOCCOCC(=O)O; Aib = CC(C)(N)C(=O)O
Target: T1, RXFP1 (Homo sapiens, UniProt Q9HBX9)
T1 construct: OVCAR5 cells expressing endogenous RXFP1; endogenous in cells; host or cells: OVCAR5 cells
T1 sequence (Q9HBX9 1-757): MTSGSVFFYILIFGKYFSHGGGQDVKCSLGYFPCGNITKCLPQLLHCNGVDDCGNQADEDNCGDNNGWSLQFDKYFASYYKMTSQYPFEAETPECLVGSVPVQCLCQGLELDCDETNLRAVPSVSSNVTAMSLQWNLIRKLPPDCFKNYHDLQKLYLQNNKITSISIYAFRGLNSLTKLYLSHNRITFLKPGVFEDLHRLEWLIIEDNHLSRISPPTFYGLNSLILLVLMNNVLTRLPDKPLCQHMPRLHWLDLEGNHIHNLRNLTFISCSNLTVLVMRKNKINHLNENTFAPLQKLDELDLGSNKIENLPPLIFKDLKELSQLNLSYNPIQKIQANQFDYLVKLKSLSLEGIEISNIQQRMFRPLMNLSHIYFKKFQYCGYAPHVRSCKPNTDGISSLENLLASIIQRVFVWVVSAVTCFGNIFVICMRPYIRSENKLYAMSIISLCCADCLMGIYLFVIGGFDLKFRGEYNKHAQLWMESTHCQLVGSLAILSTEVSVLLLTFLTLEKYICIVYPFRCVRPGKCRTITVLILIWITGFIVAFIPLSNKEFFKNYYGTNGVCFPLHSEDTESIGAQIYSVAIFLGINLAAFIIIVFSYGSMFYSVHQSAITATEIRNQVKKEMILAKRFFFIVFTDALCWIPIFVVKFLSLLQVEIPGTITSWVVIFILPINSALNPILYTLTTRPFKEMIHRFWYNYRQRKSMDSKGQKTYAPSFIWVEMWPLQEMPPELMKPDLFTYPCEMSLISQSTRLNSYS
Assay: OVCAR5 cAMP assay (HTRF), RXFP1 agonist activity
Format: cell-based
Conditions: for Emax: OVCAR-5, maximal cAMP relative to H2-relaxin maximum (100%), read-out: EMax, OVCAR 5 cells (cAMP); for EC50: OVCAR5 cells, cAMP HTRF, read-out: EC50 (nM), OVCAR 5 cells (cAMP)
In short: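 OVCAR5 cells (endogenous RXFP1) pretreated 40 min at 37° C with 1 mM IBMX, then exposed to peptides in serum-free medium for 30 min at 37° C. Lysate cAMP read by HTRF; EC50 from variable-slope sigmoidal fit; Emax as % of H2-relaxin maximal cAMP in same run.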

Row | Compound | Emax [%] | EC50 [nM]
1 | CCCCCCCCCCCCCCCC(=O)N[C@@H](CCC(=O)NCCCC[C@H](NC(=O)CC[C@H](NC(=O)CC[C@H](NC(=O)CC[C@H](NC(=O)COCCOCCNC(=O)COCCOCCNC(=O)COCCOCCNC(=O)COCCOCCNC(=O)[C@H](CCCCNC(C)=O)NC(=O)[C@H](CCCCN)NC(=O)[C@H](CCCNC(=N)N)NC(=O)[C@](C)(CCCCN)NC(=O)[C@H](CO)NC(=O)[C@](C)(Cc1ccccc1)NC(=O)[C@@H](NC(=O)[C@H](CO)NC(=O)[C@H](CCCC)NC(=O)CNC(=O)[C@H](CCC(=O)O)NC(=O)C(C)(C)NC(=O)C(C)(C)NC(=O)[C@@H](NC(=O)[C@H](CCCCNC(C)=O)NC(=O)[C@H](C)NC(=O)[C@H](CCCNC(=N)N)NC(=O)[C@@H](NC(=O)[C@H](CCCCN)NC(=O)[C@H](CCC(=O)O)NC(=O)[C@H](CCCNC(=N)N)NC(=O)CNC(=O)[C@H](CCC(=O)O)NC(=O)[C@H](CC(C)C)NC(C)=O)C(C)C)[C@@H](C)CC)[C@@H](C)O)C(=O)O)C(=O)O)C(=O)O)C(N)=O)C(=O)O [compound 152] (Ac-LEGREKVRAK(Ac)I[Aib][Aib]EG[Nle]ST[αMeF]S[αMeK]RKK(Ac)[AEEA][AEEA][AEEA][AEEA][γGlu][γGlu][γGlu]K([γGlu-Palmitoyl])-NH2) | 91 | –
2 | CCCCCCCCCCCCCCCC(=O)N[C@@H](CCC(=O)N[C@@H](CCC(=O)N[C@@H](CCC(=O)NCCOCCOCC(=O)NCCOCCOCC(=O)NCCOCCOCC(=O)NCCOCCOCC(=O)NCCCC[C@H](NC(=O)[C@H](CCCCNC(C)=O)NC(=O)[C@H](CCCCN)NC(=O)[C@H](CCCNC(=N)N)NC(=O)C(C)(C)NC(=O)[C@H](CO)NC(=O)[C@H](Cc1ccccc1)NC(=O)[C@@H](NC(=O)[C@H](CO)NC(=O)[C@H](CCCC)NC(=O)CNC(=O)[C@H](CCC(=O)O)NC(=O)C(C)(C)NC(=O)C(C)(C)NC(=O)[C@@H](NC(=O)[C@H](CCCCNC(C)=O)NC(=O)[C@H](C)NC(=O)[C@H](CCCNC(=N)N)NC(=O)[C@@H](NC(=O)[C@H](CCCCN)NC(=O)[C@H](CCC(=O)O)NC(=O)[C@H](CCCNC(=N)N)NC(=O)CNC(=O)[C@H](CCC(=O)O)NC(=O)[C@H](CC(C)C)NC(C)=O)C(C)C)[C@@H](C)CC)[C@@H](C)O)C(N)=O)C(=O)O)C(=O)O)C(=O)O [compound 153] (Ac-LEGREKVRAK(Ac)I[Aib][Aib]EG[Nle]STFS[Aib]RKK(Ac)K([AEEA-AEEA-AEEA-AEEA-γGlu-γGlu-γGlu-Palmitoyl])-NH2) | 89 | 0.26
3 | CCCCCCCCCCCCCCCCCC(=O)N[C@@H](CCC(=O)N[C@@H](CCC(=O)N[C@@H](CCC(=O)NCCOCCOCC(=O)NCCOCCOCC(=O)NCCOCCOCC(=O)NCCCC[C@H](NC(=O)[C@H](CCCCNC(C)=O)NC(=O)[C@H](C)NC(=O)[C@H](C)NC(=O)C(C)(C)NC(=O)[C@H](CO)NC(=O)[C@H](Cc1c[nH]c2ccccc12)NC(=O)[C@@H](NC(=O)[C@H](CO)NC(=O)[C@H](CCCC)NC(=O)CNC(=O)[C@H](CCC(=O)O)NC(=O)C(C)(C)NC(=O)C(C)(C)NC(=O)[C@@H](NC(=O)[C@H](CCCCNC(C)=O)NC(=O)[C@H](C)NC(=O)[C@H](CCCNC(=N)N)NC(=O)[C@@H](NC(=O)[C@H](CCCCN)NC(=O)[C@H](CCC(=O)O)NC(=O)[C@H](CCCNC(=N)N)NC(=O)CNC(=O)[C@H](CCC(=O)O)NC(=O)[C@H](CC(C)C)NC(C)=O)C(C)C)[C@@H](C)CC)[C@@H](C)O)C(N)=O)C(=O)O)C(=O)O)C(=O)O [compound 155] (Ac-LEGREKVRAK(Ac)I[Aib][Aib]EG[Nle]STWS[Aib]AAK(Ac)K([AEEA-AEEA-AEEA-γGlu-γGlu-γGlu-Stearoyl])-NH2) | 95 | –
4 | CCCCCCCCCCCCCCCCCC(=O)N[C@@H](CCC(=O)N[C@@H](CCC(=O)N[C@@H](CCC(=O)NCCOCCOCC(=O)NCCOCCOCC(=O)NCCOCCOCC(=O)NCCCC[C@H](NC(=O)[C@H](CCCCNC(C)=O)NC(=O)[C@H](CCCCN)NC(=O)[C@H](CCCNC(=N)N)NC(=O)C(C)(C)NC(=O)[C@H](CO)NC(=O)[C@H](Cc1c[nH]c2ccc(O)cc12)NC(=O)[C@@H](NC(=O)[C@H](CO)NC(=O)[C@H](CCCC)NC(=O)CNC(=O)[C@H](CCC(=O)O)NC(=O)C(C)(C)NC(=O)C(C)(C)NC(=O)[C@@H](NC(=O)[C@H](CCCCNC(C)=O)NC(=O)[C@H](C)NC(=O)[C@H](CCCNC(=N)N)NC(=O)[C@@H](NC(=O)[C@H](CCCCN)NC(=O)[C@H](CCC(=O)O)NC(=O)[C@H](CCCNC(=N)N)NC(=O)CNC(=O)[C@H](CCC(=O)O)NC(=O)[C@H](CC(C)C)NC(C)=O)C(C)C)[C@@H](C)CC)[C@@H](C)O)C(N)=O)C(=O)O)C(=O)O)C(=O)O [compound 158] (Ac-LEGREKVRAK(Ac)I[Aib][Aib]EG[Nle]ST[Trp(5-OH)]S[Aib]RKK(Ac)K([AEEA-AEEA-AEEA-γGlu-γGlu-γGlu-Stearoyl])-NH2) | 90 | 0.14
5 | CCCCCCCCCCCCCCCC(=O)N[C@@H](CCC(=O)N[C@@H](CCC(=O)NCCCC[C@H](NC(=O)CC[C@H](NC(=O)CC[C@H](NC(=O)COCCOCCNC(=O)COCCOCCNC(=O)COCCOCCNC(=O)COCCOCCNC(=O)[C@H](CCCCNC(C)=O)NC(=O)[C@H](CCCCN)NC(=O)[C@H](CCCNC(=N)N)NC(=O)[C@](C)(CCCCN)NC(=O)[C@H](CO)NC(=O)[C@H](Cc1ccccc1)NC(=O)[C@@H](NC(=O)[C@H](CO)NC(=O)[C@H](CCCC)NC(=O)CNC(=O)[C@H](CCC(=O)O)NC(=O)C(C)(C)NC(=O)C(C)(C)NC(=O)[C@@H](NC(=O)[C@H](CCCCNC(C)=O)NC(=O)[C@H](C)NC(=O)[C@H](CCCNC(=N)N)NC(=O)[C@@H](NC(=O)[C@H](CCCCN)NC(=O)[C@H](CCC(=O)O)NC(=O)[C@H](CCCNC(=N)N)NC(=O)CNC(=O)[C@H](CCC(=O)O)NC(=O)[C@H](CC(C)C)NC(C)=O)C(C)C)[C@@H](C)CC)[C@@H](C)O)C(=O)O)C(=O)O)C(N)=O)C(=O)O)C(=O)O [compound 159] (Ac-LEGREKVRAK(Ac)I[Aib][Aib]EG[Nle]STFS[αMeK]RKK(Ac)[AEEA][AEEA][AEEA][AEEA][γGlu][γGlu]K([γGlu-γGlu-Palmitoyl])-NH2) | 88 | 0.02

Further lines, results first:

Row | Emax [%] | EC50 [nM] | Compound
6 | 94 | – | CCCCCCCCCCCC(=O)N[C@@H](CCC(=O)N[C@@H](CCC(=O)N[C@@H](CCC(=O)N[C@@H](CCC(=O)NCCCC[C@H](NC(=O)COCCOCCNC(=O)COCCOCCNC(=O)COCCOCCNC(=O)COCCOCCNC(=O)[C@H](CCCCNC(C)=O)NC(=O)[C@H](C)NC(=O)[C@H](CCCNC(=N)N)NC(=O)[C@](C)(CCCCN)NC(=O)[C@H](CO)NC(=O)[C@H](Cc1ccccc1)NC(=O)[C@@H](NC(=O)[C@H](CO)NC(=O)[C@H](CCC(N)=O)NC(=O)CNC(=O)[C@H](CCC(=O)O)NC(=O)C(C)(C)NC(=O)C(C)(C)NC(=O)[C@@H](NC(=O)[C@H](CCCCNC(C)=O)NC(=O)[C@H](C)NC(=O)[C@H](CCCNC(=N)N)NC(=O)[C@@H](NC(=O)[C@H](CCCCN)NC(=O)[C@H](CCC(=O)O)NC(=O)[C@H](CCCNC(=N)N)NC(=O)CNC(=O)[C@H](CCC(=O)O)NC(=O)[C@H](CC(C)C)NC(C)=O)C(C)C)[C@@H](C)CC)[C@@H](C)O)C(N)=O)C(=O)O)C(=O)O)C(=O)O)C(=O)O [compound 161] (Ac-LEGREKVRAK(Ac)I[Aib][Aib]EGQSTFS[αMeK]RAK(Ac)[AEEA][AEEA][AEEA][AEEA]K([γGlu-γGlu-γGlu-γGlu-Lauroyl])-NH2)
7 | 87 | – | CCCCCCCCCCCCCCC(=O)N[C@@H](CCC(=O)N[C@@H](CCC(=O)N[C@@H](CCC(=O)NCCOCCOCC(=O)NCCOCCOCC(=O)NCCOCCOCC(=O)NCCCC[C@H](NC(=O)[C@H](CCCCNC(C)=O)NC(=O)[C@H](CCCCN)NC(=O)[C@H](CCCNC(=N)N)NC(=O)C(C)(C)NC(=O)[C@H](CO)NC(=O)[C@H](Cc1c[nH]c2ccccc12)NC(=O)[C@@H](NC(=O)[C@H](CO)NC(=O)[C@H](CCCC)NC(=O)CNC(=O)[C@H](CCC(=O)O)NC(=O)C(C)(C)NC(=O)C(C)(C)NC(=O)[C@@H](NC(=O)[C@H](CCCCNC(C)=O)NC(=O)[C@H](C)NC(=O)[C@H](CCCNC(=N)N)NC(=O)[C@@H](NC(=O)[C@H](CCCCN)NC(=O)[C@H](CCC(=O)O)NC(=O)[C@H](CCCNC(=N)N)NC(=O)CNC(=O)[C@H](CCC(=O)O)NC(=O)[C@H](CC(C)C)NC(C)=O)C(C)C)[C@@H](C)CC)[C@@H](C)O)C(N)=O)C(=O)O)C(=O)O)C(=O)O [compound 163] (Ac-LEGREKVRAK(Ac)I[Aib][Aib]EG[Nle]STWS[Aib]RKK(Ac)K([AEEA-AEEA-AEEA-γGlu-γGlu-γGlu-Pentadecanoyl])-NH2)

Source: patent US10988523B2, “Modified lipidated Relaxin B chain peptides and their therapeutic use” (Sanofi, priority 2018, dated 2021)
